Results from US11584727B2, “2-thioxothiazolidin-4-one derivatives active as transthyretin ligands and uses thereof” (BSIM Therapeutics, S.A., priority 2014, dated 2023).

Columns and labels:
[1] = target: T1, wild type transthyretin (WT-TTR) (Homo sapiens, UniProt P02766); assay: WT-TTR amyloid fibril formation assay (turbidimetry, acid-induced); format: biochemical; conditions: for Fibril Formation (%): WT-TTR 3.6 μM, 1:1 TTR-compound stoichiometry, 37° C., normalized to no-compound control (100%)
T1 construct: made in house; host or cells: E. coli BL21 (DE3), pET23a plasmid

[2] = target: T2, thyroxine-binding globulin (TBG) (Homo sapiens, UniProt P05543); assay: Thyroxine (T4) binding competition by gel electrophoresis in plasma, TBG band; conditions: [125I]T4, in presence of compound
T2 construct: from tissue; host or cells: human plasma
T2 sequence (P05543 21-415): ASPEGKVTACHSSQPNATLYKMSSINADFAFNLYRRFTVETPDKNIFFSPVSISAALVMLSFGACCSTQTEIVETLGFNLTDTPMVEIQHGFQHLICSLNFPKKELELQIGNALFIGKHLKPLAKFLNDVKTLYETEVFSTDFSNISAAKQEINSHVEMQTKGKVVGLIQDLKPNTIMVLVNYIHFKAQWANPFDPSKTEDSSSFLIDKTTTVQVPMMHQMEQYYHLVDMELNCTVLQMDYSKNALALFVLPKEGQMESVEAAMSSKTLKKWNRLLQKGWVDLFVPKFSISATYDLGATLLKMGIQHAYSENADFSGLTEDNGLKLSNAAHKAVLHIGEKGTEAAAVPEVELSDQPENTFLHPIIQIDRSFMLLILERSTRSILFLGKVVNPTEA
Experimental: Briefly, upon incubation of human plasma in the presence of the test compounds and radio-labeled T4 ([125I]T4), the samples are subjected to native PAGE. After electrophoresis, the gels are dried, subjected to phosphor imaging, and the intensity of the protein bands is then compared. […] The intensity of the bands decreases, as compared to the control samples (absence of compound), if the compound binds to the protein(s) competing with T4.
FIG. 24 presents the results of these experiments, where the bands in the gel correspond to the major T4 binding plasma proteins. […] The results were analyzed by calculation of the TTR/total (TTR+ALB+TBG) ratio for each sample collected at different time points. The displacement of T4 from TTR is calculated and plotted as the difference between the average of ratios of TTR/total protein for each control sample and the average of the ratios of TTR/total protein. […]
Five (5) μL of human plasma plus 0.25-0.5 μL of [125I]T4 (specific radioactivity 1250 μCi/m; concentration 320 μCi/mL; Perkin Elmer, Boston, Mass., U.S.A.) plus 5 μL of PBS with glycerol 50% are incubated for 1 hour at room temperature (RT) and the samples are subjected to native PAGE. After electrophoresis, the gels are dried, subjected to phosphor imaging (Typhoon 8600; Molecular Diagnostics, Amersham Biosciences), and analyzed using the ImageQuant program version 5.1. […]

Compound | Fibril Formation (%) ([1]; pH 4.4, 72 hours) | T4 bound to TBG [2] | inhibition of fibril formation ([1]; 1:2 compound-protein stoichiometry (0.5×), TTR 3.6 μM) | inhibitory activity against TTR amyloid fibril formation compared with reference compounds (in words) ([1]; TTR 3.6 μM, pH 4.4, 72 hours) | IC50 ([1]; WT-TTR fixed at 3.6 μM, ten compound concentrations, pH 4.4, 72 hours)
O=C(O)c1ccc2nc(-c3cc(Cl)cc(Cl)c3)oc2c1 [Tafamidis, reference compound] | 43% | 53.6% |  |  | 
COc1cc(/C=C2\SC(=S)N(CC(=O)O)C2=O)cc(Cl)c1O [AT50-A00 (Z), (Z)-3-hydroxycarbonylmethyl-5-(3′-chloro-4′-hydroxy-5′-methoxyphenylmethylidene)-2-thioxothiazolidin-4-one] | 28% | 54.3% | above 70% | superior to that of reference compounds Tafamidis | 1.77 ± 0.24 µM
